Source: US9062026B2, “Fused pyrimidines and substituted quinazolines as inhibitors of p97” (Cleave Biosciences, Inc., priority 2012, dated 2015)
Like-named read-outs stand apart in the source and are kept apart here.

Target: p97 (Homo sapiens (Human), UniProt P55072)
Test: P97 ATPase biochem assay (ADP Glo)
Type: biochemical
Procedure: The ATPase assay is performed according the following protocol: Purified enzyme (20 nM p97), substrate (20 μM ATP) and a dose titration of compounds are mixed in buffer (50 mM TRIS pH 7.5, 20 mM MgCl2, 0.02% TX-100, 1 mM DTT, 0.2% (v/v) glycerol) and incubated at 37° C. for 15 minutes. The reaction is terminated and the level of product generated is measured using the ADP Glo Assay Kit (Promega, Madison Wis.). Plotting product generated versus compound concentration and using a four-parameter fit model generates an IC50 value for each compounds.

[1] = 20 nM p97, 20 μM ATP, 37° C., 15 minutes, read-out: p97 biochem IC50

Sequence of p97 (P55072 whole entry): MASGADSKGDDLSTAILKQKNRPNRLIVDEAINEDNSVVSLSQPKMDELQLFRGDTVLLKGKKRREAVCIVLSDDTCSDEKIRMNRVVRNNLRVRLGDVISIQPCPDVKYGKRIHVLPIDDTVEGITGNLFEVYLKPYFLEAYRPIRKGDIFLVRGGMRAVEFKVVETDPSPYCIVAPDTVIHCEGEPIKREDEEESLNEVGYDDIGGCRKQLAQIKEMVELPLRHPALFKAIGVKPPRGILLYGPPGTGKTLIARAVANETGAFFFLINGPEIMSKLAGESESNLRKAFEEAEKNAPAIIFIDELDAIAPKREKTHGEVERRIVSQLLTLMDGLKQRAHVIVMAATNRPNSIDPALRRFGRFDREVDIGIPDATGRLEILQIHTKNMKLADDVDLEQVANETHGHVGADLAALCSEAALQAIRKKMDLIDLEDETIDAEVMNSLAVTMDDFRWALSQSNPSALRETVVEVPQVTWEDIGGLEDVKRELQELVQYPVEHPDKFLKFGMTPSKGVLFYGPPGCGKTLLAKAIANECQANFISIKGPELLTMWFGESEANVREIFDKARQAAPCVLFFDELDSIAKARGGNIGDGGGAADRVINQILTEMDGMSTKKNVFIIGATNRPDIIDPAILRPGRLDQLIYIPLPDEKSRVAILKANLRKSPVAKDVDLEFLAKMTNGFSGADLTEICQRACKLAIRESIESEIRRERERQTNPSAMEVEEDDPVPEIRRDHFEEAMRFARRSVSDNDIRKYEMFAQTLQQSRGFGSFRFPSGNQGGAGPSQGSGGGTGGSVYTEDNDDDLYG

| Compound | IC50 [1] | IC50 (read-out: p97 IC50) |
| --- | --- | --- |
| COc1cccc2c(NCc3ccccc3)nc(-n3c(/C=C/S(C)(=O)=O)cc4ccccc43)nc12 [drawing 244] | < 2000 nM | – |
| CC(N)c1cc2ccccc2n1-c1nc2c(c(NCc3ccccc3)n1)CCCC2 (stereo not shown) | < 2000 nM | – |
| COc1cccc2c(NCc3ccccc3)nc(-c3c(C)oc4ccccc34)nc12 | < 2000 nM | – |
| COc1cccc2c(NCc3ccccc3)nc(-n3ccc4ccccc43)nc12 | < 2000 nM | – |
| Cc1cc2ccccc2n1-c1nc2c(c(NCc3ccccc3)n1)CNCC2 | < 2000 nM | – |
| COc1cccc2c(NCc3ccccc3)nc(-n3c(/C=C(/C#N)C(N)=O)cc4ccccc43)nc12 [drawing 243] | < 2000 nM | – |
| COc1cccc2c(NCc3ccccc3)nc(-n3c(NC(C)=O)nc4ccccc43)nc12 | < 5000 nM | – |
| COc1cccc2c(NCc3ccccc3)nc(C(C)c3ccccc3)nc12 (stereo not shown) | < 10000 nM | – |
| COc1cccc2c(NCc3ccccc3)nc(Nc3ccccn3)nc12 | < 10000 nM | – |
| COc1cccc2c(NCc3ccoc3)nc(-n3c(N)nc4ccccc43)nc12 | < 5000 nM | – |
| COc1cccc2c(NCc3ccccc3)nc(N3CCOc4ccccc43)nc12 | < 5000 nM | – |
| COc1cccc2c(NCc3ccccc3)nc(CCc3ccccc3)nc12 | < 25000 nM | – |
| COc1cccc2c(NCc3ccccc3)nc(N(C(N)=O)c3ccccc3)nc12 | < 5000 nM | – |
| COc1cccc2c(NCc3ccccc3)nc(CCC(C)C)nc12 | < 10000 nM | – |
| COCCOc1cccc2c(NCc3ccccc3)nc(-n3c(OC)cc4c(C#N)cccc43)nc12 [1-[4-(benzylamino)-8-(2-methoxyethoxy)quinazolin-2-yl]-2-methoxy-1H-indole-4-carbonitrile] | – | < 100 nM |
| Cc1cc2ccccc2n1-c1nc2c(c(NCc3ccccc3)n1)COCC2 [N-benzyl-2-(2-methyl-1H-indol-1-yl)-5H,7H,8H-pyrano[4,3-d]pyrimidin-4-amine] | – | < 300 nM |

| Compound | IC50 [1] | IC50 (read-out: p97 IC50) |
| --- | --- | --- |
| COc1cccc2c(NCc3ccccc3)nc(N3c4ccccc4CC3C)nc12 (stereo not shown) | < 5000 nM | – |
| C=CC(=O)NCc1cc2ccccc2n1-c1nc(NCc2ccccc2)c2cccc(OC)c2n1 | < 2000 nM | – |
| NCc1cc2ccccc2n1-c1nc2c(c(NCc3ccccc3)n1)CCCC2 [drawing 219] | < 2000 nM | – |
| COc1cccc2c(NCc3ccccc3)nc(Nc3ncc[nH]3)nc12 | < 10000 nM | – |
| CC(=O)N1CCc2c(nc(C3C(C)=Cc4ccccc43)nc2NCc2ccccc2)C1 (stereo not shown) | < 2000 nM | – |
| COc1cccc2c(NCc3ccccc3)nc(-n3c(/C=C/C#N)cc4ccccc43)nc12 [drawing 242] | < 2000 nM | – |
| Cc1nc2ccccn2c1-c1nc2c(c(NCc3ccccc3)n1)CCCC2 [N-benzyl-2-{2-methylimidazo[1,2-a]pyridin-3-yl}-5,6,7,8-tetrahydroquinazolin-4-amine] | – | < 300 nM |
| COc1cccc2c(NCc3ccccc3)nc(-n3c(CNC(C)=O)cc4ccccc43)nc12 [N-({1-[4-(benzylamino)-8-methoxyquinazolin-2-yl]-1H-indol-2-yl}methyl)acetamide] | – | < 300 nM |
| COC1=Nc2ccccc2C1c1nc(NCc2ccc(F)cc2)c2cccc(OC)c2n1 (stereo not shown) | < 2000 nM | – |
| CN(C)Cc1cccc2c(NCc3ccccc3)nc(-n3c(N)nc4ccccc43)nc12 | < 25000 nM | – |
| Cc1cc2c(Cl)cccc2n1-c1nc2c(c(NCc3ccccc3)n1)CNCC2 [N-benzyl-2-(4-chloro-2-methyl-1H-indol-1-yl)-5H,6H,7H,8H-pyrido[4,3-d]pyrimidin-4-amine] | – | < 300 nM |
| COCCOc1cccc2c(NCc3ccccc3)nc(-n3c(CNC(N)=O)cc4ccccc43)nc12 [({1-[4-(benzylamino)-8-(2-methoxyethoxy)quinazolin-2-yl]-1H-indol-2-yl}methyl)urea] | – | < 100 nM |
| CN(C)Cc1cc2ccccc2n1-c1nc2c(c(NCc3ccccc3)n1)CCCC2 [drawing 229] | < 2000 nM | – |
| COCCOc1cccc2c(NCc3ccccc3)nc(-n3c(C)nc4ccccc43)nc12 [N-benzyl-8-(2-methoxyethoxy)-2-(2-methyl-1H-1,3-benzodiazol-1-yl)quinazolin-4-amine] | – | < 300 nM |
| COC(=O)NCc1cc2ccccc2n1-c1nc2c(c(NCc3ccccc3)n1)CCCC2 [drawing 232] | < 2000 nM | – |
